Laboratory results as given in EP4818168A1, “FUSED RING COMPOUND, PHARMACEUTICAL COMPOSITION THEREOF AND USE THEREOF” (priority 2023, dated 2025).
Read-outs that look alike come from different tables or passages of the source.

Target: T1, AURKA (Homo sapiens, UniProt O14965)
T1 construct: endogenous in cells; host or cells: Jurkat cells
T1 sequence (O14965 1-403): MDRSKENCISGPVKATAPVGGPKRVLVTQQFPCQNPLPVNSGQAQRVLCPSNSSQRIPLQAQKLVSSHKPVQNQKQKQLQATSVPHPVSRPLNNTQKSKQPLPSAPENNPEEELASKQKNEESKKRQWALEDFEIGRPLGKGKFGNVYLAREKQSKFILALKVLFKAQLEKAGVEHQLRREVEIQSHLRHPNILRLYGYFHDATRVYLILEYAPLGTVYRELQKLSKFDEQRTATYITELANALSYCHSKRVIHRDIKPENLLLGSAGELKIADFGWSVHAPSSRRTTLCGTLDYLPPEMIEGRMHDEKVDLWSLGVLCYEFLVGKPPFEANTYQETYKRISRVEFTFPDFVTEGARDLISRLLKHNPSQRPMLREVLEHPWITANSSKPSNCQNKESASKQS
Assay type: cell-based
Conditions: Jurkat cells, 24 h
Excerpt: WB is a classical biochemical experimental method used to detect the abundance of a target protein in a sample of cells or biological tissue. It relies on specific antigen-antibody binding to detect protein signals from the sample processed by gel electrophoresis: the protein specifically binds to a primary antibody at an epitope; the primary antibody is then conjugated with a secondary antibody to amplify the signal cascade; the signal is read out by chemiluminescent or fluorescent detection. The intracellular protein content is ultimately characterized by the intensity of the optical signals. […] The DC50 value can be calculated by curve fitting of the protein WB exposure signals.
The experimental procedure is as follows: • 1. Seed Jurkat cells into a 12-well plate at 1×10^6 cells/500 µL/well. • 2. Mix the culture medium with the compound to a concentration that is twice the desired final concentration. […] Transfer the cell suspension to a centrifuge tube. Rinse the 12-well plate with PBS and then transfer the PBS from the plate to the same centrifuge tube. Centrifuge at 3000 rpm for 5 min at room temperature. Aspirate the supernatant using a vacuum pump. […] Lyse on ice for 20 min. • 4. Centrifuge the lysed sample at 13000 rpm for 20 min at 4°C. Mix the supernatant with 5× protein loading buffer. Boil at 100°C for 5 min and then cool. Store the denatured protein sample at -20°C. • 5. […] Run electrophoresis at 80 V for 20 min, and then at 120 V constant voltage for 60 min. • 6. Transfer the protein onto a nitrocellulose membrane in an ice bath at 250 mA constant current for 90 min. • 7. […] Incubate with a primary antibody overnight at 4°C. • 9. […] Incubate with a secondary antibody for 1-2 h at room temperature. • 10. […] Expose and image the membrane using a LICOR Odyssey DLx imager.

## COc1cc(Nc2ncc3c(n2)-c2ccc(Cl)cc2C(c2c(F)cccc2OC)=NC3)ccc1C(=O)N[C@H]1C[C@@H](C#Cc2cccc3c2CN(C2CCC(=O)NC2=O)C3=O)C1 (relative stereo) [Compound A6]
Table 1
  Percentage of AURKA Degradation Induced by 100 nM Compound in Jurkat Cells: ++ (30% < Degradation ≤ 70%)
  Percentage of AURKA Degradation Induced by 1 µM Compound in Jurkat Cells: + (Degradation ≤ 30%)

## COc1cc(Nc2ncc3c(n2)-c2ccc(Cl)cc2C(c2c(F)cccc2OC)=NC3)ccc1C(=O)NCCOCCNc1cccn2c(N3CCC(=O)NC3=O)cnc12 [Compound A20]
Table 1
  Percentage of AURKA Degradation Induced by 100 nM Compound in Jurkat Cells: ++ (30% < Degradation ≤ 70%)
  Percentage of AURKA Degradation Induced by 1 µM Compound in Jurkat Cells: ++ (30% < Degradation ≤ 70%)

## COc1cc(Nc2ncc3c(n2)-c2ccc(Cl)cc2C(c2c(F)cccc2OC)=NC3)ccc1C(=O)NCCN1CCN(c2ccc(-n3ccc(=O)[nH]c3=O)cn2)CC1 [Compound A31]
Table 1
  Percentage of AURKA Degradation Induced by 100 nM Compound in Jurkat Cells: ++ (30% < Degradation ≤ 70%)
  Percentage of AURKA Degradation Induced by 1 µM Compound in Jurkat Cells: ++ (30% < Degradation ≤ 70%)

## O=C1CCN(c2ccc(C#C[C@H]3C[C@H](NC(=O)c4ccc(Nc5ncc6c(n5)-c5ccc(Cl)cc5C(c5c(F)cccc5F)=NC6)cc4)C3)cc2)C(=O)N1 [Compound A53]
Table 1
  Percentage of AURKA Degradation Induced by 100 nM Compound in Jurkat Cells: ++ (30% < Degradation ≤ 70%)
  Percentage of AURKA Degradation Induced by 1 µM Compound in Jurkat Cells: ++ (30% < Degradation ≤ 70%)

## O=C1CCN(c2ccc(N3CC4(CC(NC(=O)c5ccc(Nc6ncc7c(n6)-c6ccc(Cl)cc6C(c6c(F)cccc6F)=NC7)cc5)C4)C3)nc2)C(=O)N1 [Compound A60]
Table 1
  Percentage of AURKA Degradation Induced by 100 nM Compound in Jurkat Cells: +++ (Degradation > 70%)
  Percentage of AURKA Degradation Induced by 1 µM Compound in Jurkat Cells: +++ (Degradation > 70%)

## O=C1CCN(c2cccc(N3CC4(CC(NC(=O)c5ccc(Nc6ncc7c(n6)-c6ccc(Cl)cc6C(c6c(F)cccc6F)=NC7)cc5)C4)C3)c2)C(=O)N1 [Compound A62]
Table 1
  Percentage of AURKA Degradation Induced by 100 nM Compound in Jurkat Cells: ++ (30% < Degradation ≤ 70%)
  Percentage of AURKA Degradation Induced by 1 µM Compound in Jurkat Cells: ++ (30% < Degradation ≤ 70%)

## CN1C(=O)CCN(c2ccc(N3CCC4(CC3)CC(NC(=O)c3ccc(Nc5ncc6c(n5)-c5ccc(Cl)cc5C(c5c(F)cccc5F)=NC6)cc3)C4)nc2)C1=O [Compound A82]
Table 2
  Percentage of AURKA Degradation Induced by 100 nM Compound in Jurkat Cells: + (Degradation ≤ 30%)
  Percentage of AURKA Degradation Induced by 1 µM Compound in Jurkat Cells: + (Degradation ≤ 30%)

## O=C1CCN(c2ccc(N3CC(N4CC(NC(=O)c5ccc(Nc6ncc7c(n6)-c6ccc(Cl)cc6C(c6c(F)cccc6F)=NC7)cc5)C4)C3)nc2)C(=O)N1 [Compound A84]
Table 2
  Percentage of AURKA Degradation Induced by 100 nM Compound in Jurkat Cells: ++ (30% < Degradation ≤ 70%)
  Percentage of AURKA Degradation Induced by 1 µM Compound in Jurkat Cells: +++ (Degradation > 70%)

## O=C1CCN(C23CCC(N4CCN(CCNC(=O)c5ccc(Nc6ncc7c(n6)-c6ccc(Cl)cc6C(c6c(F)cccc6F)=NC7)cc5)CC4)(CC2)CC3)C(=O)N1 [Compound A91]
Table 2
  Percentage of AURKA Degradation Induced by 100 nM Compound in Jurkat Cells: + (Degradation ≤ 30%)
  Percentage of AURKA Degradation Induced by 1 µM Compound in Jurkat Cells: + (Degradation ≤ 30%)

## O=C1CCN(C23CC(N4CCN(CCNC(=O)c5ccc(Nc6ncc7c(n6)-c6ccc(Cl)cc6C(c6c(F)cccc6F)=NC7)cc5)CC4)(C2)C3)C(=O)N1 [Compound A92]
Table 2
  Percentage of AURKA Degradation Induced by 100 nM Compound in Jurkat Cells: + (Degradation ≤ 30%)
  Percentage of AURKA Degradation Induced by 1 µM Compound in Jurkat Cells: + (Degradation ≤ 30%)

## O=C1CCN(c2ccc(N3CCC4(CC3)CC(NC(=O)c3ccc(Nc5ncc6c(n5)-c5ccc(Cl)cc5C(c5c(F)cccc5F)=NC6)cc3)C4)c(F)c2)C(=O)N1 [Compound A93]
Table 2
  Percentage of AURKA Degradation Induced by 100 nM Compound in Jurkat Cells: ++ (30% < Degradation ≤ 70%)
  Percentage of AURKA Degradation Induced by 1 µM Compound in Jurkat Cells: +++ (Degradation > 70%)

## O=C1CCN(c2ccc(N3CCN(CCNc4ccc(Nc5ncc6c(n5)-c5ccc(Cl)cc5C(c5c(F)cccc5F)=NC6)cc4)CC3)cc2)C(=O)N1 [Compound A108]
Table 2
  Percentage of AURKA Degradation Induced by 100 nM Compound in Jurkat Cells: + (Degradation ≤ 30%)
  Percentage of AURKA Degradation Induced by 1 µM Compound in Jurkat Cells: + (Degradation ≤ 30%)

## O=C1CCN(c2ccc(N3CCN(CCn4ccnc4-c4ccc(Nc5ncc6c(n5)-c5ccc(Cl)cc5C(c5c(F)cccc5F)=NC6)cc4)CC3)cc2)C(=O)N1 [Compound A111]
Table 2
  Percentage of AURKA Degradation Induced by 100 nM Compound in Jurkat Cells: + (Degradation ≤ 30%)
  Percentage of AURKA Degradation Induced by 1 µM Compound in Jurkat Cells: + (Degradation ≤ 30%)

## O=C1CCN(c2ccc([C@H]3C[C@H](N4CC(NC(=O)c5ccc(Nc6ncc7c(n6)-c6ccc(Cl)cc6C(c6c(F)cccc6F)=NC7)cc5)C4)C3)nc2)C(=O)N1 [Compound A113]
Table 2
  Percentage of AURKA Degradation Induced by 100 nM Compound in Jurkat Cells: +++ (Degradation > 70%)
  Percentage of AURKA Degradation Induced by 1 µM Compound in Jurkat Cells: ++ (30% < Degradation ≤ 70%)

## O=C1CCN(c2ccc([C@H]3C[C@@H](N4CC(NC(=O)c5ccc(Nc6ncc7c(n6)-c6ccc(Cl)cc6C(c6c(F)cccc6F)=NC7)cc5)C4)C3)nc2)C(=O)N1 [Compound A114]
Table 2
  Percentage of AURKA Degradation Induced by 100 nM Compound in Jurkat Cells: +++ (Degradation > 70%)
  Percentage of AURKA Degradation Induced by 1 µM Compound in Jurkat Cells: +++ (Degradation > 70%)

## Cc1ccc(N2CCN(CCC#Cc3cccc(Nc4ncc5c(n4)-c4ccc(Cl)cc4C(c4c(F)cccc4F)=NC5)c3)CC2)cc1N1CCC(=O)NC1=O [Compound A117]
Table 2
  Percentage of AURKA Degradation Induced by 100 nM Compound in Jurkat Cells: ++ (30% < Degradation ≤ 70%)
  Percentage of AURKA Degradation Induced by 1 µM Compound in Jurkat Cells: ++ (30% < Degradation ≤ 70%)

## O=C1CCN(c2ccc(N3CCC4(CC3)CC(NC(=O)c3ccc(Nc5ncc6c(n5)-c5ccc(Cl)cc5C(c5ccccc5Cl)=NC6)cc3)C4)nc2)C(=O)N1 [Compound A119]
Table 2
  Percentage of AURKA Degradation Induced by 100 nM Compound in Jurkat Cells: +++ (Degradation > 70%)
  Percentage of AURKA Degradation Induced by 1 µM Compound in Jurkat Cells: +++ (Degradation > 70%)

## O=C1CCN(c2cccc(N3CCN(CC#Cc4ccc(Nc5ncc6c(n5)-c5ccc(Cl)cc5C(c5c(F)cccc5F)=NC6)cc4)CC3)c2)C(=O)N1 [Compound A123]
Table 2
  Percentage of AURKA Degradation Induced by 100 nM Compound in Jurkat Cells: + (Degradation ≤ 30%)
  Percentage of AURKA Degradation Induced by 1 µM Compound in Jurkat Cells: + (Degradation ≤ 30%)

## O=C1CCN(c2ccc(C#CCN3CCn4c(cnc4-c4ccc(Nc5ncc6c(n5)-c5ccc(Cl)cc5C(c5c(F)cccc5F)=NC6)cc4)C3)cc2)C(=O)N1 [Compound A139]
Table 2
  Percentage of AURKA Degradation Induced by 100 nM Compound in Jurkat Cells: +++ (Degradation > 70%)
  Percentage of AURKA Degradation Induced by 1 µM Compound in Jurkat Cells: +++ (Degradation > 70%)

## O=C1CCN(c2cnc(N3CCC(N4CCN(c5ccc(Nc6ncc7c(n6)-c6ccc(Cl)cc6C(c6c(F)cccc6F)=NC7)cc5)C(=O)C4)CC3)s2)C(=O)N1 [Compound A154]
Table 2
  Percentage of AURKA Degradation Induced by 100 nM Compound in Jurkat Cells: +++ (Degradation > 70%)
  Percentage of AURKA Degradation Induced by 1 µM Compound in Jurkat Cells: ++ (30% < Degradation ≤ 70%)

## O=C1CCN(c2ccc(N3CCC(Cn4cnc(-c5ccc(Nc6ncc7c(n6)-c6ccc(Cl)cc6C(c6c(F)cccc6F)=NC7)cc5)c4)CC3)nc2)C(=O)N1 [Compound A159]
Table 2
  Percentage of AURKA Degradation Induced by 100 nM Compound in Jurkat Cells: +++ (Degradation > 70%)
  Percentage of AURKA Degradation Induced by 1 µM Compound in Jurkat Cells: +++ (Degradation > 70%)

## O=C1CCN(c2ccc(N3CC(Cn4cnc(-c5ccc(Nc6ncc7c(n6)-c6ccc(Cl)cc6C(c6c(F)cccc6F)=NC7)cc5)c4)C3)nc2)C(=O)N1 [Compound A160]
Table 2
  Percentage of AURKA Degradation Induced by 100 nM Compound in Jurkat Cells: ++ (30% < Degradation ≤ 70%)
  Percentage of AURKA Degradation Induced by 1 µM Compound in Jurkat Cells: ++ (30% < Degradation ≤ 70%)

## Cc1c(N2CCC(C#Cc3cccc(Nc4ncc5c(n4)-c4ccc(Cl)cc4C(c4c(F)cccc4F)=NC5)c3)CC2)cccc1N1CCC(=O)NC1=O [Compound A161]
Table 2
  Percentage of AURKA Degradation Induced by 100 nM Compound in Jurkat Cells: + (Degradation ≤ 30%)
  Percentage of AURKA Degradation Induced by 1 µM Compound in Jurkat Cells: ++ (30% < Degradation ≤ 70%)

## Cc1c(N2CCN(CCc3cccc(Nc4ncc5c(n4)-c4ccc(Cl)cc4C(c4c(F)cccc4F)=NC5)c3)CC2)cncc1N1CCC(=O)NC1=O [Compound A162]
Table 2
  Percentage of AURKA Degradation Induced by 100 nM Compound in Jurkat Cells: ++ (30% < Degradation ≤ 70%)
  Percentage of AURKA Degradation Induced by 1 µM Compound in Jurkat Cells: ++ (30% < Degradation ≤ 70%)

## Cc1c(N2CCC3(CC2)CN(Cc2cccc(Nc4ncc5c(n4)-c4ccc(Cl)cc4C(c4c(F)cccc4F)=NC5)c2)C3)cccc1N1CCC(=O)NC1=O [Compound A163]
Table 2
  Percentage of AURKA Degradation Induced by 100 nM Compound in Jurkat Cells: ++ (30% < Degradation ≤ 70%)
  Percentage of AURKA Degradation Induced by 1 µM Compound in Jurkat Cells: + (Degradation ≤ 30%)
